What all share (assay type): in vivo, Solanum lycopersicum
The test system of one data set is tomato root. As to the kind of experiment: Root growth after 24 h piperonylic acid treatment. Conditions: 200 μM PA, 4-day-old plants, newly grown root zone after transfer. As for the experimental part:
FIG. 7A-B (also referred to as Supplemental FIG. 2 in technical section). […] A. Schematic representation of the experimental design to test the PA. 4-day-old plants after germination were transferred to MS media+1% sucrose with and without 200 μM of PA. After 24 hours, root growth was measured for the part of the root that grew after transferring. Orange horizontal bar=newly grown root after transferring. B. Root growth after 24H in control and PA treatment for the newly root zone after transferring (statistical significance test determined by ANOVA p-value 0.05).
(§1) Seeds of M82 were grown in 1% MS+1% sucrose. Four days after germination, plants were transferred to new MS square plates with/without 200 μM of piperonylic acid (Sigma P49805-5G) and 200 μM piperonylic acid plus 10 mM monolignols (Sigma Aldrich 223735-100MG,404586-100MG) for 24 hours in the dark, with DMSO as the solvent. Three cm segments from the root tip including the root meristem were exposed to 15 μg/mL PI (P4170; Sigma) in the dark at 30° C. for 1 h. The roots were washed in water and one cm segments from the root tip were embedded in 3% agarose and made sections of 150-200 μM using a vibratome (Leica VT1000 S). Confocal Laser Scanning microscopy was performed on a Zeiss LSM700 confocal with the 20× objective, at 405 nm excitation and 600-650 nm detection.

In data set [1] the test system is root lignin biosynthesis within the endodermis and exodermis. As to the kind of experiment: Root lignin deposition (basic fuchsin staining) after PA treatment. Conditions: 200 μM PA, 24 hours. As for the experimental part:
For root sections stained with basic fuchsin (Fisher scientific Cat no 632-99-5) and calcofluor white (PhytoTechnology laboratories Cat no 4404-43-7), 1 cm segments from the root tip were embedded in 3% agarose and were sectioned at 150-200 μM using a vibratome (Leica VT1000 S). The sections were stained in Clearsee buffer (Ursache et al. 2018) with basic fuchsin for 30 minutes then washed two times. In some cases, the sections were stained with calcofluor after basic fuchsin for 30 minutes and washed two times. Confocal Laser Scanning microscopy was performed on a Zeiss LSM700 confocal with the 20× objective, basic fuchsin: 550-561 nm excitation and 570-650 nm detection. Root samples were mounted in ClearSee (Ursache et al., 2018) and scanned and imaged on a Zeiss Observer Z1 with the 20× or 40× objective, basic fuchsin: 550-561 nm excitation and 570-650 nm detection and calcofluor white: 405 nm excitation and 425-475 nm detection.
Seeds of M82 were grown in 1% MS+1% sucrose. Four days after germination, plants were transferred to new MS square plates with/without 200 μM of piperonylic acid (Sigma P49805-5G) and 200 μM piperonylic acid plus 10 mM monolignols (Sigma Aldrich 223735-100MG,404586-100MG) for 24 hours in the dark, with DMSO as the solvent. […]

Data set [2] relates to exodermal lignin cap (apoplastic barrier) of tomato root. Nature of the data set: Apoplastic tracer assay with propidium iodide (PI). Conditions: 200 μM PA 24 hours, then PI 30 minutes. The procedure: as §1, with “Three cm segments from the root tip including the root meristem were exposed to 15 μg/mL PI (P4170; Sigma) in the dark at 30° C. for 1 h.” left out

Regarding `O=C(O)c1ccc2c(c1)OCO2` [PA, Piperonylic acid], the root growth entry in the data set with tomato root is “does not interfere with root growth”; in the data set with tomato root (listed as Piperonylic acid) it was “does not affect root growth”. The “root lignin biosynthesis within the endodermis and exodermis” value in data set [1] was “does disrupt root lignin biosynthesis”. The “PI penetration into cortex cells” value in data set [2] is “Pt was observed after exposure within cortex cells”. Further, in data set [2] (control versus PA-treated), the “PI signal in the exodermal lignin cap (PI blockage)” value was “more intense in control relative to PA-treated plants”.

These data come from US20260103721A1, “GENES CONTROLLING BARRIER FORMATION IN ROOTS” (The Regents of the University of California, priority 2022, published 2026).
